Active and inactive are the calls of the source. The calls are words filed in the database; no cut-off is given here.
Columns and labels:
[1] = Toxicity in BALB/c nude mouse implanted with mouse EMT6 cells assessed as body weight loss at 40 mg/kg, po qd and measured every 2 days for 18 days; format: organism-based; settings: in vivo, 432 h, time 18 day
[2] = biological target: Cyclin-dependent kinase 13/Cyclin-K (Homo sapiens, UniProt Q14004); test: Inhibition of recombinant N-terminal GST/His6-fusion tagged human CDK13/Cyclin K expressed in Sf9 insect cells incubated for 20 mins followed by [33P]gamma-ATP addition and measured after 2 hrs by radiometric HotSpot Kinase assay
[3] = system: MDA-MB-231; test: Induction of cell cycle arrest in human MDA-MB-231 cells assessed as accumulation of cells in S phase at 3 uM incubated for 48 hrs by RNase/propidium iodide staining based flow cytometry analysis (reference value: […]); format: functional
[4] = Inhibition of recombinant full length N-terminal GST/His6-fusion tagged human CDK9/Cyclin T1 expressed in Sf9 insect cells incubated for 20 mins followed by [33P]gamma-ATP addition and measured after 2 hrs by radiometric HotSpot Kinase assay
[5] = Oral bioavailability in ICR mouse at 10 mg/kg measured upto 24 hrs by LC-MS/MS analysis; format: ADME, organism-based; settings: in vivo
[6] = system: MDA-MB-231; test: Induction of apoptosis in human MDA-MB-231 cells assessed as early apoptotic cells at 3 uM measured after 48 hrs by Annexin V-FITC/PI staining based flow cytometric analysis (reference value: 0.32%); format: functional
[7] = biological target: Cyclin-dependent kinase 7/ cyclin H (Homo sapiens, UniProt P50613); test: Inhibition of CDK7/Cyclin H (unknown origin) incubated for 20 mins followed by [33P]gamma-ATP addition and measured after 2 hrs by radiometric HotSpot Kinase assay; format: protein-complex assay
[8] = Clearance in ICR mouse at 1 mg/kg, iv measured upto 24 hrs by LC-MS/MS analysis; format: ADME, organism-based; settings: in vivo
[9] = biological target: CDK4/Cyclin D3 (Homo sapiens, UniProt P11802); test: Inhibition of recombinant N-terminal GST/His6-fusion tagged human CDK4/Cyclin D3 expressed in Sf9 insect cells using 5-FAM-IPTSPITTTYFFFKKK as substrate preincubated for 10 mins followed by substrate addition and incubated for 3 hrs in presence of ATP by caliper mobility shift analysis
[10] = biological target: Tyrosine-protein phosphatase non-receptor type 6 (Homo sapiens, UniProt P29350); test: Inhibition of SHP1 (unknown origin) using DiFMUP as substrate preincubated for 20 mins followed by substrate addition and measured for 2 hrs by fluorescence based analysis
[11] = system: EMT6; test: Antitumor activity against mouse EMT6 cells implanted in BALB/c mouse syngenic model assessed as downregulation of Ki67 level in tumor at 20 mg/kg, po bid measured after 18 days by immunohistochemical analysis; format: functional, organism-based; settings: time 18.0 day
[12] = system: EMT6; test: Antitumor activity against mouse EMT6 cells implanted in BALB/c mouse syngenic model assessed as downregulation of p-retinoblastoma level in tumor at 20 to 40 mg/kg, po qd measured after 18 days by immunohistochemical analysis; format: functional, organism-based; settings: dose 20-40 mg/kg, time 18.0 day
[13] = biological target: T1, Tyrosine-protein phosphatase non-receptor type 11 (Homo sapiens, UniProt Q06124); test: Inhibition of SHP2 (unknown origin) using DiFMUP as substrate incubated for 60 mins followed by substrate addition for 30 mins by microplate reader method
T1 sequence (Q06124 whole entry): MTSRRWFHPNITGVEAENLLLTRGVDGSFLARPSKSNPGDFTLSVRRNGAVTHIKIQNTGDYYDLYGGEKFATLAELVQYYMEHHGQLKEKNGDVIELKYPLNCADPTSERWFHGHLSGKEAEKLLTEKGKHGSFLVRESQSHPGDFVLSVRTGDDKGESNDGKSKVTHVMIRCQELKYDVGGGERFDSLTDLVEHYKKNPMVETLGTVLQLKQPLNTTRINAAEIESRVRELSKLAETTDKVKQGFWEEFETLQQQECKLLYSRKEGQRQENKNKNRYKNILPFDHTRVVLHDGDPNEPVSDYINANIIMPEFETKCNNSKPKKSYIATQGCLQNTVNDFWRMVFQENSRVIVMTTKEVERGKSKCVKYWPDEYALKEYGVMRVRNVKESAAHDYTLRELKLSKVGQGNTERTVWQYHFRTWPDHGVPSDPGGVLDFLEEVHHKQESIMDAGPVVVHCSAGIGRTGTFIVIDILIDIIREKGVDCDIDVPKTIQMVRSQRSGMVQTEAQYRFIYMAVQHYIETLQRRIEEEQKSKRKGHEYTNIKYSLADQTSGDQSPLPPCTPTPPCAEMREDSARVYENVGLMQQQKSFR

[14] = biological target: Cyclin-dependent kinase 5/CDK5 activator 1 (Homo sapiens, UniProt Q00535); test: Inhibition of recombinant full length N-terminal GST/His6-fusion tagged human CDK5/P25 expressed in Sf9 insect cells incubated for 20 mins followed by [33P]gamma-ATP addition and measured after 2 hrs by radiometric HotSpot Kinase assay
[15] = system: MDA-MB-231; test: Induction of apoptosis in human MDA-MB-231 cells assessed as necrotic cells at 3 uM measured after 48 hrs by Annexin V-FITC/PI staining based flow cytometric analysis (reference value: 0.58%); format: functional
[16] = AUC in ICR mouse at 10 mg/kg, po measured upto 24 hrs by LC-MS/MS analysis; format: ADME, organism-based; set-up: time < 24 hrs, dose 10 mg/kg, route po; settings: in vivo
[17] = system: EMT6; test: Antitumor activity against mouse EMT6 cells implanted in BALB/c mouse syngenic model assessed as downregulation of pERK level in tumor at 20 mg/kg, po bid measured after 18 days by immunohistochemical analysis; format: functional, organism-based; settings: time 18.0 day
[18] = system: MDA-MB-468; test: Antiproliferative activity against human MDA-MB-468 cells assessed as inhibition of cell growth incubated for 48 hrs by MTT assay; format: functional, cell-based; settings: Homo sapiens, MDA-MB-468, 48 h
[19] = biological target: CDK6/cyclin D3 (Homo sapiens, UniProt Q00534); test: Inhibition of recombinant N-terminal GST/His6-fusion tagged human CDK6/Cyclin D3 expressed in Sf9 insect cells incubated for 20 mins followed by [33P]gamma-ATP addition and measured after 2 hrs by radiometric HotSpot Kinase assay
[20] = system: MDA-MB-231; test: Induction of apoptosis in human MDA-MB-231 cells assessed as late apoptotic cells at 1 uM measured after 48 hrs by Annexin V-FITC/PI staining based flow cytometric analysis (reference value: 1.06%); format: functional
[21] = system: EMT6; test: Antitumor activity against mouse EMT6 cells implanted in BALB/c mouse syngenic model assessed as increase in infiltration of CD8 positive T cells into tumors at 20 to 40 mg/kg, po qd measured after 18 days by immunohistochemical analysis; format: functional, organism-based; settings: dose 20-40 mg/kg, time 18.0 day
[22] = Cmax in ICR mouse at 1 mg/kg, iv measured upto 24 hrs by LC-MS/MS analysis; format: ADME, organism-based; set-up: time < 24 hrs, dose 1 mg/kg, route iv; settings: in vivo
[23] = system: EMT6; test: Antitumor activity against mouse EMT6 cells implanted in BALB/c mouse syngenic model assessed as increase in infiltration of CD8 positive T cells into tumors at 20 mg/kg, po bid measured after 18 days by immunohistochemical analysis; format: functional, organism-based; settings: time 18.0 day
[24] = biological target: CDK2/Cyclin-E2 (Homo sapiens, UniProt O96020+P24941); test: Inhibition of recombinant N-terminal GST/His6-fusion tagged human CDK2/Cyclin E2 expressed in Sf9 insect cells incubated for 20 mins followed by [33P]gamma-ATP addition and measured after 2 hrs by radiometric HotSpot Kinase assay

Sequence of Cyclin-dependent kinase 5/CDK5 activator 1 (Q00535 whole entry, the tested form may be a part): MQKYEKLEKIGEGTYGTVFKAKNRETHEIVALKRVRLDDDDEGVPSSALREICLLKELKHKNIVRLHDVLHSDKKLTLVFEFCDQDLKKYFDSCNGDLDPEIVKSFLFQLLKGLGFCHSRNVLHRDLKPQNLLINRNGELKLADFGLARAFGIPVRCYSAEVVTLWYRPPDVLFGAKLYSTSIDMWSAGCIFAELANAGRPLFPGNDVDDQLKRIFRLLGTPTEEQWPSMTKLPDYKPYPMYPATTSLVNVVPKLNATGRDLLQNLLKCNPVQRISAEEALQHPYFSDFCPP
Sequence of Cyclin-dependent kinase 5/CDK5 activator 1 (Q15078 whole entry, further chain, the tested form may be a part): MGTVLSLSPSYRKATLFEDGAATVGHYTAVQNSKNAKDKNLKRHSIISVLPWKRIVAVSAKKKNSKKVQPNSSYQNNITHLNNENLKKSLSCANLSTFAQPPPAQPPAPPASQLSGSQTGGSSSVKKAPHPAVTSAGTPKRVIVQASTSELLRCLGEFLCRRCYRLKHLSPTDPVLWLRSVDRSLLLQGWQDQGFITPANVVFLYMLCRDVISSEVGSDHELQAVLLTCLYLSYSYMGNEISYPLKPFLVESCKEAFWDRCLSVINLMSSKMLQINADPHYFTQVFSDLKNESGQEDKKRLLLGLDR
Sequence of CDK6/cyclin D3 (P30281 whole entry, the tested form may be a part): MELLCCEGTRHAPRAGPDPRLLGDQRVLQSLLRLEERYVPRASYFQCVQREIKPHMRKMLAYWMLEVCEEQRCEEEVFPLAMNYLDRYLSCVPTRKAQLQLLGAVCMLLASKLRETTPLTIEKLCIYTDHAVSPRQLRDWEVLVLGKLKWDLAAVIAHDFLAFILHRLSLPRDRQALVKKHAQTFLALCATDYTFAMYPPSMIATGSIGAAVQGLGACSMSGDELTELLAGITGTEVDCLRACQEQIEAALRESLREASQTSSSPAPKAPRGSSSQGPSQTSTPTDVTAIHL
Sequence of CDK6/cyclin D3 (Q00534 whole entry, the tested form may be a part): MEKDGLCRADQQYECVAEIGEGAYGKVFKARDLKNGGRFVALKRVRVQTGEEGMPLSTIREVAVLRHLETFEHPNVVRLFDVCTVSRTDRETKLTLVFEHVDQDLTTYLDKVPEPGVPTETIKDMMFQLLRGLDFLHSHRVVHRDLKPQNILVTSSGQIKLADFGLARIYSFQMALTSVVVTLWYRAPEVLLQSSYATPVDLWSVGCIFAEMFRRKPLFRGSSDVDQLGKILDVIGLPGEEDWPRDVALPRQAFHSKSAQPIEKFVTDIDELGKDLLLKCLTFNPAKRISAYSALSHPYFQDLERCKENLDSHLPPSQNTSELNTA
Sequence of CDK4/Cyclin D3 (P11802 whole entry, the tested form may be a part): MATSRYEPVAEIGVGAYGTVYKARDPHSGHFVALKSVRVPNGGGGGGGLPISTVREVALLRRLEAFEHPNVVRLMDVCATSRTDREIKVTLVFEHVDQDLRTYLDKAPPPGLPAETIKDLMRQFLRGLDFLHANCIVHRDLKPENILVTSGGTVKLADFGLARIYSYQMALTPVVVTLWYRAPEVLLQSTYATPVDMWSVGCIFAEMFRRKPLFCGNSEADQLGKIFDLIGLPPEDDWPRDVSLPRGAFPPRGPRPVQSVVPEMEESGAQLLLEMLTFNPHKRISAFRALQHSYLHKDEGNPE
Sequence of CDK4/Cyclin D3 (P30281 whole entry, further chain, the tested form may be a part): as the sequence (P30281 whole entry, the tested form may be a part) above
Sequence of Cyclin-dependent kinase 13/Cyclin-K (Q14004 whole entry, the tested form may be a part): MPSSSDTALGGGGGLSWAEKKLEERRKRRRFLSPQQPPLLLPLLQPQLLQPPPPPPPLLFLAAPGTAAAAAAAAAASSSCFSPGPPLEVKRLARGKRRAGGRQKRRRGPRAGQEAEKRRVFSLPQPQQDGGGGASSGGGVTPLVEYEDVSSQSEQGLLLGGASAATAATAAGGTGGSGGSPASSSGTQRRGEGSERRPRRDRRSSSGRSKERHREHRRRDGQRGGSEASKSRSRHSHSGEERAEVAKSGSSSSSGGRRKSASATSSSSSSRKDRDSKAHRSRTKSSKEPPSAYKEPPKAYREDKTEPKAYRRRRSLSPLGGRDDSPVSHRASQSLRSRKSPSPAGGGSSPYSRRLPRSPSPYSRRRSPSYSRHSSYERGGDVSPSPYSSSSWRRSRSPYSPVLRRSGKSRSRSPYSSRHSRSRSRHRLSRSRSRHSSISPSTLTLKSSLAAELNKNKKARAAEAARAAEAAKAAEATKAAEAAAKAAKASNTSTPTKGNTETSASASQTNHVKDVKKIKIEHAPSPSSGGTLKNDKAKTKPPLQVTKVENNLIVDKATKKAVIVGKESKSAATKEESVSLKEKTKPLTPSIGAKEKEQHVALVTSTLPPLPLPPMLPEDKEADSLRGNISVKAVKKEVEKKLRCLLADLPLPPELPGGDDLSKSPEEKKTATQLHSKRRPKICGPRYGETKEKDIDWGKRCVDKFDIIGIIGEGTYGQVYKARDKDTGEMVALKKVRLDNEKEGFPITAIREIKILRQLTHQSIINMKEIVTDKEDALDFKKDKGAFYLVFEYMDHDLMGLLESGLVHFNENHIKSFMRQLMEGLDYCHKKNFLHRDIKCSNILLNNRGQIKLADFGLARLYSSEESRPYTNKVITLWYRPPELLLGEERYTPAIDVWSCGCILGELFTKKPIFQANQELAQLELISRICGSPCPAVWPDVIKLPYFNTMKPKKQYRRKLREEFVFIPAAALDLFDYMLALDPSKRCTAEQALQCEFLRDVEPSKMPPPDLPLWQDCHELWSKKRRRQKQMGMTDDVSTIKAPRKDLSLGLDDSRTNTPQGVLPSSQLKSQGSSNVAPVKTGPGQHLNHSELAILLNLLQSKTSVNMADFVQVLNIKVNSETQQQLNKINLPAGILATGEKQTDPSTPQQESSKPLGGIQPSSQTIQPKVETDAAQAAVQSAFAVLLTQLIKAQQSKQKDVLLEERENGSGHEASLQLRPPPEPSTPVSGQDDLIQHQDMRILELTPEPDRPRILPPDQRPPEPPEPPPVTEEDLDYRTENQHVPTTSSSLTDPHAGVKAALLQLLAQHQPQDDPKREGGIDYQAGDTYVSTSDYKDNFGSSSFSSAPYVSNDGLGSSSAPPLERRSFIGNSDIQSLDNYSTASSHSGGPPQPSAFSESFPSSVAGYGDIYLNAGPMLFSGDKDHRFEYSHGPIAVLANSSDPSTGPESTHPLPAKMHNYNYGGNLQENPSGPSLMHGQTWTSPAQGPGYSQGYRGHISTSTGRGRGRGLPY
Sequence of Cyclin-dependent kinase 13/Cyclin-K (O75909 whole entry, further chain, the tested form may be a part): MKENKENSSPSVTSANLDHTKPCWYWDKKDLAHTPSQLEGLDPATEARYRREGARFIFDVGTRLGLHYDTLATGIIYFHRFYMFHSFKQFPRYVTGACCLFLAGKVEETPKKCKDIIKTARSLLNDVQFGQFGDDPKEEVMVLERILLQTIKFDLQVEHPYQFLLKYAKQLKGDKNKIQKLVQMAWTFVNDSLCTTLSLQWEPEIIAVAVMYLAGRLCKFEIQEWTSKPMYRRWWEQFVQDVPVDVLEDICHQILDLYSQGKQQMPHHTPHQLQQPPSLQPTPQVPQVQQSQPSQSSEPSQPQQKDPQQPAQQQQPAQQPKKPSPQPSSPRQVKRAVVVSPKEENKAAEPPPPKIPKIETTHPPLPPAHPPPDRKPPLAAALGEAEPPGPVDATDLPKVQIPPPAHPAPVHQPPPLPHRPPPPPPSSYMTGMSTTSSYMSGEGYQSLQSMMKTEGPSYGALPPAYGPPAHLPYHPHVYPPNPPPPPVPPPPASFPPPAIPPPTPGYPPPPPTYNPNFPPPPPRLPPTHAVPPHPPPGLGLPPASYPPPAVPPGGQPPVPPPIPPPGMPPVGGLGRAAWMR
Sequence of Tyrosine-protein phosphatase non-receptor type 6 (P29350 whole entry): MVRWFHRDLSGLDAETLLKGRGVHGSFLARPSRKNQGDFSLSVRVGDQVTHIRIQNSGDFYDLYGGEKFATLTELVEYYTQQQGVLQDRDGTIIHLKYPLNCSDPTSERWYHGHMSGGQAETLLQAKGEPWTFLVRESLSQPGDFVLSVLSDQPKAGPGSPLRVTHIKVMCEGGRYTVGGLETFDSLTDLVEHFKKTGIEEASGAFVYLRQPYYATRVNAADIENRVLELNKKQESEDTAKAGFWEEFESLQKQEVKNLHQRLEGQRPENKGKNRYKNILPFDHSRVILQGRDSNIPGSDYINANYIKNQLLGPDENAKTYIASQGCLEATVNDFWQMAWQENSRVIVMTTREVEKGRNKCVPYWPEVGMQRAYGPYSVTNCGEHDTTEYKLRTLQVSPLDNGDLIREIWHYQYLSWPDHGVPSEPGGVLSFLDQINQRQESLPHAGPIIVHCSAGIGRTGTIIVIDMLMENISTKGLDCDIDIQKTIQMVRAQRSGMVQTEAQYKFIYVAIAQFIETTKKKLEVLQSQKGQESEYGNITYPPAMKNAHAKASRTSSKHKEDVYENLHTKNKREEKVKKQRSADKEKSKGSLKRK

With Cc1nc2c(F)cc(-c3nc(Nc4nccc(Sc5cnc(N6CCC7(CC6)CO[C@@H](C)[C@H]7N)cn5)c4Cl)ncc3F)cc2n1C(C)C the Activity [1] was “Non-Toxic”, the IC50 [2] was > 1000 nM and the Activity [3] was 39.6%. The IC50 [4] was 26.4 nM, the bioavailability [5] was 45.8% and the Activity [6] was 9.46%. For the same compound, the IC50 [7] was 968 nM, the clearance [8] was 13.9 mL/min/kg and the IC50 [9] was 18.2 nM. The IC50 [10] was > 20000 nM, the Activity [11] was “Active” and the Activity [12] was “Active”. It also gave an IC50 [13] of 4.3 nM, an IC50 [14] of 540 nM and an Activity [15] of 1.25%. The AUC at 24 h [16] was 5510 ng·h/mL, the Activity [17] was “Active” and the IC50 [18] was 1760 nM. For the same compound, the IC50 [19] was 634 nM, the Activity [20] was 5.24% and the Activity [21] was “Active”. For the same compound, the Cmax [22] was 383 ng/mL, the Activity [23] was “Active” and the IC50 [24] was 464 nM.

From ChEMBL document CHEMBL5154884, “Discovery of a Novel Src Homology-2 Domain Containing Protein Tyrosine Phosphatase-2 (SHP2) and Cyclin-Dependent Kinase 4 (CDK4) Dual Inhibitor for the Treatment of Triple-Negative Breast Cancer” (J Med Chem, 2022)
